Measurements reported in ChEMBL document CHEMBL5726238, “Phenyl and pyridinyl substituted piperidines and piperazines as inhibitors of IDH1 mutants and their use in treating cancer” (2017).

Each compound was assayed against Isocitrate dehydrogenase [NADP] cytoplasmic (Homo sapiens, UniProt O75874, R132H) (assay: Inhibition Assay: Assays were conducted in a volume of 76 μl assay buffer (150 mM NaCl, 10 mM MgCl2, 20 mM Tris pH 7.5, 0.03% bovine serum albumin) as follows in a standard 384-well plate: To 25 ul of substrate mix (8 uM NADPH, 2 mM aKG), 1 μl of test compound was added in DMSO. […] The reaction was incubated for 50 minutes at room temperature, then 25 μl of detection mix (30 μM resazurin, […]) was added and the mixture further incubated for 5 minutes at room temperature.).
Isocitrate dehydrogenase [NADP] cytoplasmic, sequence (O75874 2-414 R132H limits assumed): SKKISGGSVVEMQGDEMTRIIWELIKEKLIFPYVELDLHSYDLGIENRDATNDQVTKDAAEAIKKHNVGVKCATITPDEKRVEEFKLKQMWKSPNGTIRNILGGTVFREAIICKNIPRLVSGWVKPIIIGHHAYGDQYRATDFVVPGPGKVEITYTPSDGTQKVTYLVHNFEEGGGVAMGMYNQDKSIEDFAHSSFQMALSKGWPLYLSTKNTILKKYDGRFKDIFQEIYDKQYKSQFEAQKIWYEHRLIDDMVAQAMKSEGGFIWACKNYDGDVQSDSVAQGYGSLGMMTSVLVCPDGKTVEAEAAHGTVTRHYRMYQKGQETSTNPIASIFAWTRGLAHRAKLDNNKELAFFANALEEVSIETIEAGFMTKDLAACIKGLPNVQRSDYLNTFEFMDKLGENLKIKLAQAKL

`C=CC(=O)N1CCc2c(C3CC3)nc(N3CCN(C(=O)C4CC4)[C@H](C4CC4)C3)c(C#N)c2C1` and `C#CC(=O)N1CCc2c(C#N)c(N3CCN(C(=O)CCOC)[C@H](C4CC4)C3)nc(C3CC3)c2C1` cannot be ordered by IC50: less than 500 nM for the first, less than 500 nM for the second.

First: CC(C)c1nc(N2CCN(C(=O)Cc3cccs3)CC2)c(C#N)c2c1COC(C)(C)C2
Second: CC(C)[C@@H]1CN(c2nc(C3CC3)c3c(c2C#N)CC(C)(C)OC3)CCN1C(=O)CCC(=O)OCCO
The IC50 of the first is higher: 1000 to 10000 nM for the first, less than 500 nM for the second.

For `COCCC(=O)N1CCN(c2nc(C3CC3)c3c(c2C#N)CN(S(C)(=O)=O)CC3)C[C@H]1C1CC1`, the IC50 was less than 500 nM.
